Test results: ChEMBL document CHEMBL5357036, “Latest developments in coumarin-based anticancer agents: mechanism of action and structure-activity relationship studies” (RSC Med Chem, 2024)
pIC50: −log10 of the molar value. Values after ≈ are worked out from the molar mass of the structure shown. Blank lines part the entries; values can stand above or below the compound they belong to.

Experiments:
HCC1937 = assay: Anticancer activity against human HCC1937 cells assessed as reduction in cell growth incubated for 48 hrs by MTT assay; format: functional, cell-based; conditions: HCC1937, 48 h
Hs-578T = assay: Anticancer activity against human Hs-578T cells assessed as cell growth inhibition by MTT assay; format: functional, cell-based
MDA-MB-231 [1] = assay: Anticancer activity against human MDA-MB-231 cells assessed as reduction in cell viability incubated for 48 hrs by MTT assay; format: functional, cell-based; conditions: MDA-MB-231, 48 h
MDA-MB-468 = assay: Anticancer activity against human MDA-MB-468 cells assessed as reduction in cell viability incubated for 48 hrs by MTT assay; format: functional, cell-based; conditions: MDA-MB-468, 48 h
HCT-116 [2] = assay: Anticancer activity against human HCT-116 cells assessed as reduction in cell viability measured after 72 hrs by MTT assay; format: functional, cell-based; conditions: HCT-116, 72 h
SW-620 = assay: Anticancer activity against human SW620 cells assessed as reduction in cell viability measured after 72 hrs by MTT assay; format: functional, cell-based; conditions: SW-620, 72 h
HT-29 = assay: Antiproliferative activity against human HT-29 cells assessed as cell growth inhibition measured after 48 hrs by MTT assay; format: functional, cell-based; conditions: HT-29, 48 h
A549 [3] = assay: Antiproliferative activity against human A549 cells assessed as cell growth inhibition measured after 48 hrs by MTT assay; format: functional, cell-based; conditions: A549, 48 h
[4] = target: ALK tyrosine kinase receptor (Homo sapiens, UniProt Q9UM73, G1202R); assay: Inhibition of ALK G1202R mutant (unknown origin)
Sequence of ALK tyrosine kinase receptor (Homo sapiens, UniProt Q9UM73, G1202R) (Q9UM73 19-1620 G1202R limits assumed): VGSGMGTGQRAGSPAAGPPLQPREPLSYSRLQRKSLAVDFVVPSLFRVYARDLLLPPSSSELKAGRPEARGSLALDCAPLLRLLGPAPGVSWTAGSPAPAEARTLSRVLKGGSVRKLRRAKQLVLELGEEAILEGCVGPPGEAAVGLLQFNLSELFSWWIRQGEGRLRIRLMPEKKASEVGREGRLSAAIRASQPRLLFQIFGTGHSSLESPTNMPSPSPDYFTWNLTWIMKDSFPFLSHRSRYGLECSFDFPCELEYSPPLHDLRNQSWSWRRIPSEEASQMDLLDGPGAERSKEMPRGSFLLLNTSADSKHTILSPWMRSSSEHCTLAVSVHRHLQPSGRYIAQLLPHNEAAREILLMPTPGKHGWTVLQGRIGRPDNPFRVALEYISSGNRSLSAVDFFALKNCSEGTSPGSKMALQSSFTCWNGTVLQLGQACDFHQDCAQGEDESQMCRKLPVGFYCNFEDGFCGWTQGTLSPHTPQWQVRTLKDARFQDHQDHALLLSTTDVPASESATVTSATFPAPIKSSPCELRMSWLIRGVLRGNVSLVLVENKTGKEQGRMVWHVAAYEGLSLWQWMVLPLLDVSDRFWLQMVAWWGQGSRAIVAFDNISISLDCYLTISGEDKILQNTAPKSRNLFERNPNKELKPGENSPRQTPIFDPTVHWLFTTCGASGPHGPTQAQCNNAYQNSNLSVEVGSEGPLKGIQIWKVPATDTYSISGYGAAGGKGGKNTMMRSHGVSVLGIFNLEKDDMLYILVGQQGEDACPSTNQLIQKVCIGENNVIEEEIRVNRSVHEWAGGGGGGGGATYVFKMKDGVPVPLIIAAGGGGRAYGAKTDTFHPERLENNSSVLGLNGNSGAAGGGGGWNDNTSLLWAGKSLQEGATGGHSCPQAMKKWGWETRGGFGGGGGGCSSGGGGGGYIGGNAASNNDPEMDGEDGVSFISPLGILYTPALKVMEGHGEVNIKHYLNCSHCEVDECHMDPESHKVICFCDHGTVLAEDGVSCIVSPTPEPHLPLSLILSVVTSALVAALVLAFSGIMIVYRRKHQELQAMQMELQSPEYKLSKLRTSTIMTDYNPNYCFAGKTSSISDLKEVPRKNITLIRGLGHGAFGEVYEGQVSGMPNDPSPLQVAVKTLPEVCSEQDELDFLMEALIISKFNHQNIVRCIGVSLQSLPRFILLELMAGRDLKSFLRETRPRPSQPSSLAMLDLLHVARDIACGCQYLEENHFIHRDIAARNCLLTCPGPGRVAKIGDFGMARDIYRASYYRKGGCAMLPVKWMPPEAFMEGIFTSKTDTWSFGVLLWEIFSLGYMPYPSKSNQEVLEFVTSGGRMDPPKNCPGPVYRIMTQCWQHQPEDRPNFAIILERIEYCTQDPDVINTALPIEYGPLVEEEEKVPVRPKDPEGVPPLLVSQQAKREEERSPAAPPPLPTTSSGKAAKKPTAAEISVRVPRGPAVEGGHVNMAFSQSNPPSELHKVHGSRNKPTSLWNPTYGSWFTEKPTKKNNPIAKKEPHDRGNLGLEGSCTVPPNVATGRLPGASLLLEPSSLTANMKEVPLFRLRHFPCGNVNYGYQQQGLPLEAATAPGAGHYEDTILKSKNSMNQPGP

[5] = target: ALK tyrosine kinase receptor (Homo sapiens, UniProt Q9UM73, G1269A); assay: Inhibition of ALK G1269A mutant (unknown origin)
Sequence of ALK tyrosine kinase receptor (Homo sapiens, UniProt Q9UM73, G1269A) (Q9UM73 19-1620 G1269A limits assumed): as the sequence (Q9UM73 19-1620 G1202R limits assumed) above, with R1184G, G1251A counted along it

[6] = target: ALK tyrosine kinase receptor (Homo sapiens, UniProt Q9UM73, L1196M); assay: Inhibition of ALK L1196M mutant (unknown origin)
Sequence of ALK tyrosine kinase receptor (Homo sapiens, UniProt Q9UM73, L1196M) (Q9UM73 19-1620 L1196M limits assumed): as the sequence (Q9UM73 19-1620 G1202R limits assumed) above, with L1178M, R1184G counted along it

MCF7 [7] = assay: Anticancer activity against human MCF7 cells assessed as reduction in cell viability by MTT assay; format: functional, cell-based
HCT-116 [8] = assay: Anticancer activity against human HCT-116 cells assessed as reduction in cell viability by MTT assay; format: functional, cell-based
MCF7 [9] = assay: Cytotoxicity against human MCF7 cells assessed as inhibition of cell growth by resazurin microplate assay; format: functional, cell-based
HCT-116 [10] = assay: Cytotoxicity against human HCT-116 cells assessed as reduction in cell growth measured after 48 hrs by MTT assay; format: functional, cell-based; conditions: HCT-116, 48 h
HepG2 [11] = assay: Anticancer activity against human HepG2 cells assessed as reduction in cell viability by MTT assay; format: functional, cell-based
DU-145 [12] = assay: Anticancer activity against human DU-145 cells assessed as cell growth inhibition by MTT assay; format: functional, cell-based
Vero = assay: Cytotoxicity against African green monkey Vero cells incubated for 24 hrs by CellTiter-Glo assay; format: toxicity, cell-based, Chlorocebus sabaeus
HepG2 [13] = assay: Antiproliferative activity against human HepG2 cells assessed as reduction in cell viability incubated for 72 hrs by MTT assay; format: functional, cell-based; conditions: HepG2, 72 h
HeLa [14] = assay: Anticancer activity against human HeLa cells assessed as reduction in cell viability measured after 72 hrs by MTT assay; format: functional, cell-based
MCF7 [15] = assay: Anticancer activity against human MCF7 cells assessed as reduction in cell viability measured after 72 hrs by MTT assay; format: functional, cell-based; conditions: MCF7, 72 h
B16-F10 = assay: Cytotoxicity against mouse B16F10 cells assessed as reduction in cell viability incubated for 48 hrs by MTT assay; format: functional, cell-based; conditions: B16-F10, 48 h
DU-145 [16] = assay: Anticancer activity against human DU-145 cells assessed as cell growth inhibition measured after 48 hrs by MTT assay; format: functional, cell-based; conditions: DU-145, 48 h
C6 = assay: Antiproliferative activity against rat C6 cells assessed as inhibition of cell growth; format: functional, cell-based
MDA-MB-231 [17] = assay: Cytotoxicity against human MDA-MB-231 cells assessed as cell growth inhibition by SRB assay; format: functional, cell-based
MCF7 [18] = assay: Cytotoxicity against human MCF7 cells assessed as cell growth inhibition by SRB assay; format: functional, cell-based
HeLa [19] = assay: Cytotoxicity against human HeLa cells assessed as growth inhibition measured after 48 hrs by MTT assay; format: functional, cell-based
HepG2 [20] = assay: Antiproliferative activity against human HepG2 cells assessed as reduction in cell viability measured after 48 hrs by MTT assay; format: functional, cell-based; conditions: HepG2, 48 h
MCF7 [21] = assay: Antiproliferative activity against human MCF7 cells assessed as reduction in cell viability measured after 48 hrs by MTT assay; format: functional, cell-based; conditions: MCF7, 48 h
MDA-MB-231 [22] = assay: Antiproliferative activity against human MDA-MB-231 cells assessed as cell growth inhibition measured after 48 hrs by MTT assay; format: functional, cell-based; conditions: MDA-MB-231, 48 h
MCF7 [23] = assay: Cytotoxicity against human MCF7 cells assessed as reduction in cell viability incubated for 48 hrs by MTT assay; format: functional, cell-based; conditions: MCF7, 48 h
HepG2 [24] = assay: Anticancer activity against human HepG2 cells assessed as reduction in cell viability measured after 72 hrs by MTT assay; format: functional, cell-based; conditions: HepG2, 72 h
A549 [25] = assay: Antiproliferative activity against human A549 cells assessed as reduction in cell viability measured after 24 hrs by MTT assay; format: functional, cell-based; conditions: A549, 24 h

pIC50 (HCT-116 [2]): 5.46
pIC50 (SW-620): 5.73
Structure (SMILES): O=C(OCC#CCOc1no[n+]([O-])c1S(=O)(=O)c1ccccc1)c1cc2ccccc2oc1=O

pIC50 (HT-29): 4.64
pIC50 (A549 [3]): 5.29
Structure (SMILES): O=c1oc2ccccc2cc1-c1nc(Nc2c3ccccc3nc3ccc(F)cc23)cs1

pIC50 [4]: 6.23
pIC50 [5]: 6.52
pIC50 [6]: 6.57
Structure (SMILES): COc1ccc2nc(-c3cc4ccc(N5CCOCC5)cc4oc3=O)sc2c1

IC50 (HepG2 [11]): 24.9 µg/mL (≈ 53.1 µM)
Structure (SMILES): COc1ccc(C(=O)Nc2nnc(SCC(=O)Nc3ccc4oc(=O)ccc4c3)s2)cc1

pIC50 (HepG2 [13]): 4.89
Structure (SMILES): O=c1cc(OCc2cc(-c3cc4c(cc3Cl)OCO4)no2)c2cc(Cl)ccc2o1
IC50 (Vero): 144 µM

pIC50 (HeLa [14]): 6.06
pIC50 (MCF7 [15]): 6.21
Structure (SMILES): O=C(NCCOCc1no[n+]([O-])c1S(=O)(=O)c1ccccc1)c1cc2ccccc2oc1=O

pIC50 (DU-145 [16]): 4.68
Structure (SMILES): O=c1oc2ccccc2c2c1nc(-c1ccc(C(F)(F)F)cc1)c1occc12
pIC50 (B16-F10): 4.89

pIC50 (MDA-MB-231 [22]): 5.10
Structure (SMILES): COc1ccc2nc3ccccc3c(Nc3csc(-c4cc5ccccc5oc4=O)n3)c2c1

pIC50 (HepG2 [24]): 5.41
Structure (SMILES): O=C(OCCCOc1no[n+]([O-])c1S(=O)(=O)c1ccccc1)c1cc2ccccc2oc1=O

pIC50 (A549 [25]): 6.55
Structure (SMILES): O=C(/C(Cl)=N/Nc1ccc([N+](=O)[O-])cc1)n1c(-c2cc3ccccc3oc2=O)nc2ccccc21

Further lines, the compound ahead of its results:

Structure (SMILES): O=c1oc2ccccc2c(O)c1C(c1ccc(O)cc1O)c1c(O)c2ccccc2oc1=O
pIC50 (HCC1937): 4.69
pIC50 (Hs-578T): 4.59
pIC50 (MDA-MB-231 [1]): 4.60
pIC50 (MDA-MB-468): 4.82

Structure (SMILES): O=C(CSc1nnc(NC(=O)c2ccccc2)s1)Nc1ccc2oc(=O)ccc2c1
IC50 (MCF7 [7]): 54.9 µg/mL (≈ 125 µM)
IC50 (HCT-116 [8]): 30.7 µg/mL (≈ 70 µM)

Structure (SMILES): COc1ccc(-c2cc(-c3cc4ccccc4oc3=O)nc(N)c2C#N)cc1
pIC50 (MCF7 [9]): 4.85
pIC50 (HCT-116 [10]): 5.00

Structure (SMILES): CC(C)(C)c1cc(C(C)(C)C)c2oc(=O)c(-c3csc(-n4nc(-c5ccccc5)cc4N)n3)cc2c1
pIC50 (DU-145 [12]): 5.15

Structure (SMILES): Cc1cn(Cc2cc(=O)oc3ccc(Cl)cc23)c(=O)n(Cc2cc(=O)oc3ccc(Cl)cc23)c1=O
pIC50 (C6): 5.31

Structure (SMILES): Cc1c(-c2csc(N)n2)c(=O)oc2cc(OC(C)(C)C(=O)O)ccc12
pIC50 (MDA-MB-231 [17]): 5.32
pIC50 (MCF7 [18]): 5.62

Structure (SMILES): CCCCOc1ccc2cc(C(=O)NNC(=O)c3c(C)oc4nc(NCCC)n(-c5ccc(C)cc5)c(=O)c34)c(=O)oc2c1
pIC50 (HeLa [19]): 5.19

Structure (SMILES): N#Cc1c(NN)nc(SCc2cc(=O)oc3ccccc23)nc1-c1ccccc1
pIC50 (HepG2 [20]): 5.26
IC50 (MCF7 [21]): 6.9 µg/mL (≈ 17.2 µM)

Structure (SMILES): O=c1oc2ccccc2c2c1nc(-c1ccccn1)c1occc12
pIC50 (MCF7 [23]): 5.10
